According to patent US20240397940A1, “COMPOSITIONS COMPRISING A SATURATED OR UNSATURATED ALIPHATIC ACID AND A NON-IONIC SURFACTANT FOR ENHANCING PENETRATION OF PESTICIDE COMPONENT” (TERRAMERA, INC., priority 2021, published 2024):

Columns and labels:
Format in all cases: in vitro ADME
[1] = system: waxy cuticles of whole soybean leaves; test: Franz cell leaf penetration of trans-2-Hexenoic acid, Biosoft adjuvants (Example 2); conditions: penetration ratio of trans-2-Hexenoic acid (1,500 ppm), azoxystrobin 343.5 ppm (Quadris) and adjuvant 1,000 ppm where included, 24 hours
From the text: (§1) This ratio may be expressed based on:
Each donor solution comprised 1,500 ppm trans-2-Hexenoic acid. Certain donor solutions included a strobilurin fungicide, namely azoxystrobin. Such donor solutions comprised Quadris®, a commercially available fungicide from Syngenta Crop Protection comprising azoxystrobin. Such donor solutions comprised 343.5 ppm azoxystrobin. […] In this example, the adjuvants tested were non-ionic surfactants comprising C11 linear alcohol ethoxylates (available from Stepan Company of Northfield, IL as Biosoft® N1-5, Biosoft® N1-7, and Biosoft® N1-9).
(§2) The permeation period was 24 hours.

[2] = system: waxy cuticles of whole soybean leaves; test: Franz cell leaf penetration of trans-2-Hexenoic acid, Mero (Example 15); conditions: penetration ratio of trans-2-Hexenoic acid (1,500 ppm), azoxystrobin 343.5 ppm (Quadris) and Mero 31.3 ppm where included, 24 hours
Procedure: as §1
Each donor solution comprised 1,500 ppm trans-2-Hexenoic acid. Certain donor solutions included a strobilurin fungicide, namely azoxystrobin. Such donor solutions comprised Quadris®, a commercially available fungicide from Syngenta Crop Protection comprising azoxystrobin. Such donor solutions comprised 343.5 ppm azoxystrobin.
as §2

[3] = system: waxy cuticles of whole wheat leaves; test: Franz cell leaf penetration of 3-Nonenoic acid (Example 5); conditions: penetration ratio of 3-Nonenoic acid (500 ppm), epoxiconazole TGAI 50 ppm and adjuvant 1,000 ppm where included, 24 hours
Procedure: as §1
(§3) Several donor solutions were prepared to assess penetration of 3-Nonenoic acid across waxy cuticles of whole wheat leaves. Each donor solution comprised 500 ppm 3-Nonenoic acid. Certain donor solutions included an azole fungicide, namely epoxiconazole technical grade active ingredient (TGAI) fungicide, each at a rate of 50 ppm. Epoxiconazole is commercially available from MilliporeSigma, St. Louis, MO, USA, as a technical grade active ingredient. […] In this example, the adjuvants tested were non-ionic surfactants comprising C11 linear alcohol ethoxylates (available from Stepan Company of Northfield, IL as Biosoft® N1-5, Biosoft® N1-7, and Biosoft® N1-9).
(§4) The permeation period was 24 hours. […] The powderized leaf was mixed with acetone as a solvent.

[4] = system: waxy cuticles of whole wheat leaves; test: Franz cell leaf penetration of 5-Hexenoic acid (Example 4); conditions: penetration ratio of 5-Hexenoic acid (1,000 ppm), pyraclostrobin 236 ppm (Headline EC) and adjuvant 1,000 ppm where included, 24 hours
Procedure: as §1
Several donor solutions were prepared to assess penetration of 5-Hexenoic acid across waxy cuticles of whole wheat leaves. Each donor solution comprised 1,000 ppm 5-Hexenoic acid (except where otherwise noted). Certain donor solutions included a strobilurin fungicide, namely pyraclostrobin. Such donor solutions comprised Headline® EC, a commercially available fungicide from BASF Corporation comprising pyraclostrobin. Such donor solutions comprised 236 ppm pyraclostrobin. […] In this example, the adjuvants tested were non-ionic surfactants comprising C11 linear alcohol ethoxylates (available from Stepan Company of Northfield, IL as Biosoft® N1-5, Biosoft® N1-7, and Biosoft® N1-9).
as §4

[5] = system: waxy cuticles of whole wheat leaves; test: Franz cell leaf penetration of pyraclostrobin, Headline EC (Example 6); conditions: penetration ratio of pyraclostrobin (236 ppm, Headline EC), 5-Hexenoic acid 1,000 ppm and adjuvant 1,000 ppm where included, 24 hours
Procedure: as §1
(§5) Several donor solutions were prepared to assess penetration of a strobilurin fungicide active ingredient, namely pyraclostrobin, across waxy cuticles of whole wheat leaves. Each donor solution comprised Headline® EC, a commercially available fungicide from BASF Corporation comprising pyraclostrobin. Such donor solutions comprised 236 ppm pyraclostrobin. Pyraclostrobin is also commercially available in end-user product form from BASF Corporation as Headline® SC fungicide. Certain donor solutions included 1,000 ppm 5-Hexenoic acid. […] In this example, the adjuvants tested were non-ionic surfactants comprising C11 linear alcohol ethoxylates (available from Stepan Company of Northfield, IL as Biosoft® N1-5, Biosoft® N1-7, and Biosoft® N1-9).
as §4

[6] = system: waxy cuticles of whole wheat leaves; test: Franz cell leaf penetration of pyraclostrobin, Headline SC (Example 8); conditions: penetration ratio of pyraclostrobin (236 ppm, Headline SC), 5-Hexenoic acid 1,000 ppm and adjuvant 1,000 ppm where included, 24 hours
Procedure: as §1
as §5, with “SC,” for “EC,”, “pyraclostrobin.” for “pyraclostrobin. Pyraclostrobin is also commercially available in end-user product form from BASF Corporation as Headline® SC fungicide.”, “included an aliphatic acid, namely 5-Hexenoic acid. Such donor solutions comprised” for “included”
as §4

[7] = system: waxy cuticles of whole wheat leaves; test: Franz cell leaf penetration of 3-Octenoic acid (Example 3); conditions: penetration ratio of 3-Octenoic acid (500 ppm), epoxiconazole TGAI 50 ppm and adjuvant 1,000 ppm where included, 24 hours
Procedure: as §1
as §3, with “3-Octenoic” for “3-Nonenoic”, “N1-5” for “N1-5, Biosoft® N1-7,”, “Biosoft®) N1-7).” for “Biosoft® N1-9).”
as §4

[8] = system: waxy cuticles of whole soybean leaves; test: Franz cell leaf penetration of azoxystrobin, Mero (Example 14); conditions: penetration ratio of azoxystrobin (343.5 ppm, Quadris), trans-2-Hexenoic acid 1,500 ppm and Mero 31.3 ppm where included, 24 hours
Procedure: as §1
Several donor solutions were prepared to assess penetration of a strobilurin fungicide, namely azoxystrobin, across waxy cuticles of whole soybean leaves. Each donor solution comprised Quadris®, a commercially available fungicide from Syngenta Crop Protection comprising azoxystrobin. Such donor solutions comprised 343.5 ppm azoxystrobin. Certain donor solutions included 1,500 ppm trans-2-Hexenoic acid.
as §2

[9] = system: waxy cuticles of whole wheat leaves; test: Franz cell leaf penetration of epoxiconazole (Example 7); conditions: 24 h, 50 ppm
Procedure: as §1
Several donor solutions were prepared to assess penetration of an azole fungicide, namely epoxiconazole, across waxy cuticles of whole wheat leaves. Epoxiconazole TGAI was provided in each donor solution at a rate of 50 ppm. Epoxiconazole is available from MilliporeSigma, St. Louis, MO, USA, and Shanghai Terppon Chemical Co., Ltd., Shanghai, China as a technical grade active ingredient. Certain donor solutions comprised 500 ppm 3-Nonenoic acid.
as §4

## CCC/C=C/C(=O)O [trans-2-hexenoic acid, trans-2-Hexenoic acid]
[1]
  Aliphatic Acid Penetration: 13.2%
[2]
  Aliphatic Acid Penetration: 13.2%

## CCCCCC=CCC(=O)O [3-Nonenoic acid]
[3]
  Aliphatic Acid Penetration: 17.6%

## C=CCCCC(=O)O [5-Hexenoic acid]
[4]
  Aliphatic Acid Penetration: 6.8%

## COC(=O)N(OC)c1ccccc1COc1ccn(-c2ccc(Cl)cc2)n1 [Pyraclostrobin, pyraclostrobin]
[5]
  Pesticidal Active Ingredient Penetration: 7.5%
[6]
  Pesticidal Active Ingredient Penetration: 7.1%

## CCCCC=CCC(=O)O [3-octenoic acid, 3-Octenoic acid]
[7]
  Aliphatic Acid Penetration: 13.4%

## CO/C=C(/C(=O)OC)c1ccccc1Oc1cc(Oc2ccccc2C#N)ncn1 [Azoxystrobin, azoxystrobin]
[8]
  Pesticidal Active Ingredient Penetration: 0.7%

## Fc1ccc([C@]2(Cn3cncn3)O[C@H]2c2ccccc2Cl)cc1 (racemic) [Epoxiconazole, epoxiconazole]
[9]
  Pesticidal Active Ingredient Penetration: 18.2%
